Earlier results as cited in PMC3199145 (Future medicinal chemistry, 2011).

Legend:
[1] = test system: Trypanosoma brucei cathepsin B-like protease (TbCatB); details: read-out: IC50 TbCatB
Trypanosoma cruzi [2] = details: drug concentration that completely clears parasite from T. cruzi infected macrophage cells; P Doyle & J Engel. Unpublished Data
Trypanosoma cruzi [3] = test system: Trypanosoma cruzi

CN1CCN(C(=O)N[C@@H](Cc2ccccc2)C(=O)N[C@H](/C=C/S(=O)(=O)c2ccccc2)CCc2ccccc2)CC1 [Compound 1, K11777]
IC50 [1]: 4 µM | MTC Trypanosoma cruzi (minimal trypanocidal concentration) (Trypanosoma cruzi [2]): 8 µM | Efficacy in vivo against T. cruzi parasites (Trypanosoma cruzi [3]): effective

C[C@@H](c1nc(-c2ccc(C#N)cc2)cs1)[C@](O)(Cn1cncn1)c1ccc(F)cc1F [Ravuconazole]
Efficacy in animal models (Trypanosoma cruzi [3]; compared with posoconazole): more limited than posoconazole

CC[C@@H]([C@H](C)O)n1ncn(-c2ccc(N3CCN(c4ccc(OC[C@@H]5CO[C@@](Cn6cncn6)(c6ccc(F)cc6F)C5)cc4)CC3)cc2)c1=O [posaconazole]
Cure of mice with acute and chronic Chagas disease (Trypanosoma cruzi [3]; mice): able to cure mice
